This is an account of results in patent publication US20180155344A1, “TRICYCLIC PIPERIDINE COMPOUNDS” (ACTELION PHARMACEUTICALS LTD, priority 2015, published 2018).

For the first test, the target named is T1, human TPH1 (Homo sapiens, UniProt P17752).
T1 sequence (P17752 1-444): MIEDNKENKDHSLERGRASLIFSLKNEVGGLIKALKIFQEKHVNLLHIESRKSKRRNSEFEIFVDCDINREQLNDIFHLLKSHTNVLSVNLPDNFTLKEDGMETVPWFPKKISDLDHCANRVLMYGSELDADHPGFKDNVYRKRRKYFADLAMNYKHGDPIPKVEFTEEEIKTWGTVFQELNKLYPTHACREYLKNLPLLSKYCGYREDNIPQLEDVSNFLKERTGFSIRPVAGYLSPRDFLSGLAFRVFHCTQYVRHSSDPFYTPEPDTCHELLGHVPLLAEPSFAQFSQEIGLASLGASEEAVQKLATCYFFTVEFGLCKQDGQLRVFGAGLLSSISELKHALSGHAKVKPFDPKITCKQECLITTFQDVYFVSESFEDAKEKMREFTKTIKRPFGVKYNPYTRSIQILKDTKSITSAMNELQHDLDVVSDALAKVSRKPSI
Briefly: biochemical.
Conditions: not given
Summed up:
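Inhibition is derived from 5-hydroxy-L-tryptophan fluorescence (540 nm emission, 300 nm excitation) after perchloric acid stop, relative to DMSO vehicle. Recombinant full-length human enzyme (40-80 nM) reacts with 40 μM tryptophan plus 100 μM methyltetrahydropterin, pH 7.6 Tris/DTT/catalase, 15° C, 60 min.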
For `O=C(COc1ccc2ccccc2c1)N1CCc2nc3cc(C(F)(F)F)ccn3c2C1c1cnn(-c2ccccc2)c1` (centres unmarked) [Example 3.41.1, 2-(naphthalen-2-yloxy)-1-(1-(1-phenyl-1H-pyrazol-4-yl)-7-(trifluoromethyl)-3,4-dihydroimidazo[1,2-a:5,4-c′]dipyridin-2(1H)-yl)ethan-1-one], the IC50 turned out to be 328 nM.

`COC(C)(C)c1ccc(C2c3c(nc4ccccn34)CCN2C(=O)COc2ccc(NS(C)(=O)=O)nc2Cl)c(F)c1` (centres unmarked) [Example 1.17.2, N-(6-chloro-5-(2-(1-(2-fluoro-4-(2-methoxypropan-2-yl)phenyl)-3,4-dihydroimidazo[1,2-a:5,4-c′]pyridin-2(1H)-yl)-2-oxoethoxy)pyridin-2-yl)methanesulfonamide] had an IC50 of 591 nM.

For the compound `COc1ccc(C2c3c(nc4cc(C(F)(F)F)ccn34)CCN2C(=O)COc2ccc(C)cc2)cc1OC` (centres unmarked) [Example 3.1.6, 1-(1-(3,4-dimethoxyphenyl)-7-(trifluoromethyl)-3,4-dihydroimidazo[1,2-a:5,4-c′]dipyridin-2(1H)-yl)-2-(p-tolyloxy)ethan-1-one], it took 71 nM to reach half-maximal inhibition (IC50). Compared with the last compound, the IC50 is about 8.3-fold lower.

In turn, `N#Cc1ccc(C2c3c(nc4ccccn34)CCN2C(=O)COc2ccc(C(=O)NC3CC3)nc2Cl)c(F)c1` (centres unmarked) [Example 1.20.2, 6-chloro-5-(2-(1-(4-cyano-2-fluorophenyl)-3,4-dihydroimidazo[1,2-a:5,4-c′]dipyridin-2(1H)-yl)-2-oxoethoxy)-N-cyclopropylpicolinamide] had an IC50 of 31 nM.

In turn, `Cc1cc(C2c3c(nc4cc(C(F)(F)F)ccn34)CCN2C(=O)COc2ccc(CN3CCOCC3)cc2Cl)ccc1F` (centres unmarked) [Example 3.33.2, 2-(2-chloro-4-(morpholinomethyl)phenoxy)-1-(1-(4-fluoro-3-methylphenyl)-7-(trifluoromethyl)-3,4-dihydroimidazo[1,2-a:5,4-c′]dipyridin-2(1H)-yl)ethan-1-one] showed an IC50 of 110 nM.

As to `O=C(COc1ccc(N2CCOCC2)nc1Cl)N1CCc2nc3ccccn3c2C1c1ncc(Cl)cc1F` (centres unmarked) [Example 1.14.1, 1-(1-(5-chloro-3-fluoropyridin-2-yl)-3,4-dihydroimidazo[1,2-a:5,4-c′]dipyridin-2(1H)-yl)-2-((2-chloro-6-morpholinopyridin-3-yl)oxy)ethan-1-one], the half-inhibitory concentration (IC50) is 4 nM.

`O=C(COc1ccc(CN2CCOCC2)cc1Cl)N1CCc2nc3cc(C(F)(F)F)ccn3c2C1c1cc(-c2ccc(F)cc2)on1` (centres unmarked) [Example 3.47.2, 2-(2-chloro-4-(morpholinomethyl)phenoxy)-1-(1-(5-(4-fluorophenyl)isoxazol-3-yl)-7-(trifluoromethyl)-3,4-dihydroimidazo[1,2-a:5,4-c′]dipyridin-2(1H)-yl)ethan-1-one] came in with an IC50 of 41 nM. This IC50 is about 10-fold higher than that of the compound before.

In turn, `CS(=O)(=O)Nc1ccc(OCC(=O)N2CCc3nc4ccccn4c3C2c2ccc(Cl)cc2F)c(C2CC2)n1` (centres unmarked) [Example 1.4.9, N-(5-(2-(1-(4-chloro-2-fluorophenyl)-3,4-dihydroimidazo[1,2-a:5,4-c′]dipyridin-2(1H)-yl)-2-oxoethoxy)-6-cyclopropylpyridin-2-yl)methanesulfonamide] had an IC50 of 364 nM.

Turning to `COc1ccc(C2c3c(nc4cc(C(F)(F)F)ccn34)CCN2C(=O)COc2ccc3ccccc3c2)cc1OC(F)F` (centres unmarked) [Example 3.12.1, 1-(1-(3-(difluoromethoxy)-4-methoxyphenyl)-7-(trifluoromethyl)-3,4-dihydroimidazo[1,2-a:5,4-c′]dipyridin-2(1H)-yl)-2-(naphthalen-2-yloxy)ethan-1-one], half-maximal inhibition (IC50) was put at 41 nM.

Compound `COc1ccc(C2c3c(nc4ccc(-c5ccccc5)cn34)CCN2C(=O)COc2ccc3ccccc3c2)cc1OC` (centres unmarked) [Example 8.1.1, 1-(1-(3,4-dimethoxyphenyl)-8-phenyl-3,4-dihydroimidazo[1,2-a:5,4-c′]dipyridin-2(1H)-yl)-2-(naphthalen-2-yloxy)ethan-1-one] displayed an IC50 of 38 nM. This IC50 and that of the compound before are within 1.5-fold of each other.

The compound `O=C(COc1ccc(CN2CCOCC2)cc1Cl)N1CCc2nc3cc(C(F)(F)F)ccn3c2C1c1ccc(Cl)cc1F` (centres unmarked) [Example 3.4.2, 1-(1-(4-chloro-2-fluorophenyl)-7-(trifluoromethyl)-3,4-dihydroimidazo[1,2-a:5,4-c′]dipyridin-2(1H)-yl)-2-(2-chloro-4-(morpholinomethyl)phenoxy)ethan-1-one] came in with an IC50 of 7 nM.

In turn, `CCc1nc(C)ccc1OCC(=O)N1CCc2nc3cc(C(F)(F)F)ccn3c2C1c1ccc(C2CC2)cc1F` (centres unmarked) [Example 3.5.1, 1-(1-(4-cyclopropyl-2-fluorophenyl)-7-(trifluoromethyl)-3,4-dihydroimidazo[1,2-a:5,4-c′]dipyridin-2(1H)-yl)-2-((2-ethyl-6-methylpyridin-3-yl)oxy)ethan-1-one] registered an IC50 of 11 nM.

`O=C(COc1ccc(CN2CCOCC2)cc1Cl)N1CCc2nc3cc(C(F)(F)F)ccn3c2C1c1ccccc1F` (centres unmarked) [Example 3.35.2, 2-(2-chloro-4-(morpholinomethyl)phenoxy)-1-(1-(2-fluorophenyl)-7-(trifluoromethyl)-3,4-dihydroimidazo[1,2-a:5,4-c′]dipyridin-2(1H)-yl)ethan-1-one] displayed an IC50 of 16 nM.

`CCc1ccccc1OCC(=O)N1CCc2nc3cc(C(F)(F)F)ccn3c2C1c1ccc(OC)c(OC)c1` (centres unmarked) [Example 3.1.28] showed an IC50 of 118 nM.

For the compound `Cc1cc(Cl)ccc1OCC(=O)N1CCc2nc3cc(C(F)(F)F)ccn3c2C1c1ncccc1F` (centres unmarked) [Example 3.21.4, 2-(4-chloro-2-methylphenoxy)-1-(1-(3-fluoropyridin-2-yl)-7-(trifluoromethyl)-3,4-dihydroimidazo[1,2-a:5,4-c′]dipyridin-2(1H)-yl)ethan-1-one], it took 464 nM to reach half-maximal inhibition (IC50).

With `COc1ccc(C2c3c(nc4cc(C(F)(F)F)ccn34)CCN2C(=O)COc2ccc3ccncc3c2)cc1OC` (centres unmarked) [Example 3.1.20, 1-(1-(3,4-dimethoxyphenyl)-7-(trifluoromethyl)-3,4-dihydroimidazo[1,2-a:5,4-c′]dipyridin-2(1H)-yl)-2-(isoquinolin-7-yloxy)ethan-1-one], the half-maximal inhibitory concentration (IC50) is 19 nM.

Take `O=C(COc1ccc(CN2CCOCC2)cc1Cl)N1CCc2nc3cc(C(F)(F)F)ccn3c2C1c1cnn(-c2ccccc2)c1` (centres unmarked) [Example 3.41.2, 2-(2-chloro-4-(morpholinomethyl)phenoxy)-1-(1-(1-phenyl-1H-pyrazol-4-yl)-7-(trifluoromethyl)-3,4-dihydroimidazo[1,2-a:5,4-c′]dipyridin-2(1H)-yl)ethan-1-one]: the midpoint of inhibition, the IC50, lay at 24 nM.

On to `Cc1ccc(C2c3c(nc4cc(C(F)(F)F)ccn34)CCN2C(=O)COc2ccc3ccccc3c2)cc1` (centres unmarked) [Example 3.23.1, 2-(naphthalen-2-yloxy)-1-(1-(p-tolyl)-7-(trifluoromethyl)-3,4-dihydroimidazo[1,2-a:5,4-c′]dipyridin-2(1H)-yl)ethan-1-one], for which the 50% inhibitory concentration (IC50) came to 67 nM. Against the preceding compound, the IC50 is about 2.8-fold higher.

Compound `O=C(COc1ccc(CN2CCOCC2)nc1Cl)N1CCc2nc3ccccn3c2C1c1ccc(Cl)cc1F` (centres unmarked) [Example 1.4.4, 1-(1-(4-chloro-2-fluorophenyl)-3,4-dihydroimidazo[1,2-a:5,4-c′]dipyridin-2(1H)-yl)-2-((2-chloro-6-(morpholinomethyl)pyridin-3-yl)oxy)ethan-1-one] showed an IC50 of 90 nM. The IC50 values of the last two compounds are within 1.5-fold of each other.

The test is the same for the next values; noted with them: Table 3; inhibitory activity on tryptophan hydroxylase 1.
On to “1-(1-(3,4-dimethoxyphenyl)-7-(trifluoromethyl)-3,4-dihydroimidazo[1,2-a:5,4-c′]dipyridin-2(1H)-yl)-2-(3-(trifluoromethyl)phenoxy)ethan-1-one [Example 3.1.10]”, for which the IC50 was found to be 251 nM.

A word on the IC50: it is the midpoint of a concentration-inhibition curve.
